Like-named read-outs stand apart in the source and are kept apart here. Where a SMILES comes first, the peptide text is derived from it.
Tests used:
[1] = target: Trypsin, from human pancreas (Homo sapiens, UniProt P07477); assay: Enzymatic assay, trypsin; details: at 100 μM
[2] = target: T1, CathepsinG, from human neutrophils (Homo sapiens, UniProt P08311); assay: Enzymatic assay, cathepsin G
T1 sequence (P08311 21-244): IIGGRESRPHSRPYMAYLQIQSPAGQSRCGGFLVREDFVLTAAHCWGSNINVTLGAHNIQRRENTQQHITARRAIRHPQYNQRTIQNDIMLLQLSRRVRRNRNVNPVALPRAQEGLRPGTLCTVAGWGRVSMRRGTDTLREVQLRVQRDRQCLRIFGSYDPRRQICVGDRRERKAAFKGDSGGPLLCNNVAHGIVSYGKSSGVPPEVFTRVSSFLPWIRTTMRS

[3] = target: T2, Elastase from human neutrophils (Homo sapiens, UniProt P08246); assay: Enzymatic assay, elastase
T2 sequence (P08246 30-267): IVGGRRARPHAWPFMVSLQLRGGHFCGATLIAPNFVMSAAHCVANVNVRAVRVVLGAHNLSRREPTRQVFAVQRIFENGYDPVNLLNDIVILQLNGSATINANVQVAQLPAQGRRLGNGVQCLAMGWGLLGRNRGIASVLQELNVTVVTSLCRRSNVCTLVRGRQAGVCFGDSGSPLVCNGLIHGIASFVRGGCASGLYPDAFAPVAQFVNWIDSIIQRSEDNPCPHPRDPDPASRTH

[4] = target: Chymotrypsin, from human pancreas (Homo sapiens, UniProt P17538); assay: Enzymatic assay, chymotrypsin; details: at 100 μM
Sequence of Chymotrypsin, from human pancreas (P17538 19-263): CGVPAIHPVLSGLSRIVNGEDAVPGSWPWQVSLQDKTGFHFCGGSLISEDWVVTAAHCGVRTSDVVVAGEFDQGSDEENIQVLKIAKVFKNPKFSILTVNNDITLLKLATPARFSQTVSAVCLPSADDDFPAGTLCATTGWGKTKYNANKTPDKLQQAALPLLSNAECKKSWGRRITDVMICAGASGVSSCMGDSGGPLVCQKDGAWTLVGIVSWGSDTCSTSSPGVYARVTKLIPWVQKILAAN

[5] = system: HELA cells (Acc57); assay: Cytotoxicity assay (MTT reduction), HELA cells; assay type: cell-based; details: Hela cells
How it was run: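 HeLa cells were grown for 24 h, then exposed to peptides at 12.5, 25 and 50 μM in triplicate for 48 h at 37 °C. MTT reduction was read at 595 nm and growth % calculated relative to time-zero wells. LC50 interpolated by linear trend at −50% growth, GI50 at 50%.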

[6] = system: human red blood cells (hRBC); assay: Hemolysis
[7] = target: T3, Chymase, from human skin (Homo sapiens, UniProt P23946); assay: Enzymatic assay, chymase
T3 sequence (P23946 22-247): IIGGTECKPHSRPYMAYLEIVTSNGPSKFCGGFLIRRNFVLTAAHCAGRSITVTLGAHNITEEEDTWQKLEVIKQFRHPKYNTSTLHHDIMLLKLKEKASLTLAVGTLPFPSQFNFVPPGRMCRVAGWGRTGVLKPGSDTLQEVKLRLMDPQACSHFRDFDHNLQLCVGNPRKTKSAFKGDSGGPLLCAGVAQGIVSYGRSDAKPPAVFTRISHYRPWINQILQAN

[8] = system: Tryptase, from human lung; assay: Enzymatic assay, tryptase; details: at 100 μM
[9] = target: Urokinase from human urine (Homo sapiens, UniProt P00749); assay: Enzymatic assay, urokinase
[10] = target: Coagulation Factor Xa, from uman plasma (Homo sapiens, UniProt P00742); assay: Enzymatic assay, coagulation factor Xa
Sequence of Coagulation Factor Xa, from uman plasma (P00742 235-488 limits assumed): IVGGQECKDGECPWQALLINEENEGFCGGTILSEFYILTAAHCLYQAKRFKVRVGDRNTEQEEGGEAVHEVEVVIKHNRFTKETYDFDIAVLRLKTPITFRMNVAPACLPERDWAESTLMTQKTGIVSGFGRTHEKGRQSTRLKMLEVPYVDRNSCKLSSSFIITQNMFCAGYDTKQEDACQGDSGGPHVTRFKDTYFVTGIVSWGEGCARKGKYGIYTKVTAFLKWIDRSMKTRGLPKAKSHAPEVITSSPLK
Sequence of Coagulation Factor Xa, from uman plasma (P00742 41-179 limits assumed): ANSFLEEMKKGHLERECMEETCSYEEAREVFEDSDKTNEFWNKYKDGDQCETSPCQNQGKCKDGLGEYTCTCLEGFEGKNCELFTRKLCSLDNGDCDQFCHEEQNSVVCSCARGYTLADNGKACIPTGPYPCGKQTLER

[11] = target: Thrombin, from Human Plasma (Homo sapiens, UniProt P00734); assay: Enzymatic assay, thrombin

SMILES	Trypsin at 100 μM % [1] [%]	IC50 ([2]; Cathepsin G IC50) [nM]	IC50 ([3]; Elastase IC50) [µM]	Chymotrypsin at 100 μM % [4] [%]	Cytotoxicity LC50/GI50 Hela cells [5] [µM]	Hemolysis at 100 μM % [6] [%]	Chymase at 100 μM % [7] [%]	Tryptase at 100 μM % [8] [%]	Urokinase at 100 μM % [9] [%]	FXa at 100 μM % [10] [%]	Thrombin at 100 μM % [11] [%]	IC50 ([2]; read-out: Cathepsin G IC50) [nM]	IC50 ([3]; read-out: Elastase IC50) [µM]
CCCC[C@@H]1NC(=O)[C@@H]2CCCN2C(=O)[C@@H]2CCCN2C(=O)[C@H](CC(=O)O)NC(=O)[C@H](CO)NC(=O)[C@H](CCCCN)NC(=O)[C@H]([C@@H](C)O)NC(=O)[C@@H]2CSSC[C@H](NC1=O)C(=O)N[C@@H](CO)C(=O)N1CCC[C@@H]1C(=O)N1CCC[C@H]1C(=O)N[C@@H](Cc1ccccc1)C(=O)N2 [Ex. 15] (HELM PEPTIDE1{F.C.T.K.S.D.P.P.[Nle].C.S.[dP].P}$PEPTIDE1,PEPTIDE1,2:R3-10:R3|PEPTIDE1,PEPTIDE1,1:R1-13:R2$$$V2.0)	95.0	56	> 100	54.2	100	0	12.7	–	–	–	–	–	–
CC[C@H](C)[C@@H]1NC(=O)[C@@H]2CCCN2C(=O)[C@@H]2CCCN2C(=O)[C@H](CC(=O)O)NC(=O)[C@H](CO)NC(=O)[C@H](CCCCN)NC(=O)[C@H]([C@@H](C)O)NC(=O)[C@@H]2CSSC[C@H](NC1=O)C(=O)N[C@@H](Cc1ccc(O)cc1)C(=O)N1CCC[C@@H]1C(=O)N1CCC[C@H]1C(=O)N[C@@H](Cc1ccccc1)C(=O)N2 [Ex. 5] (HELM PEPTIDE1{F.C.T.K.S.D.P.P.I.C.Y.[dP].P}$PEPTIDE1,PEPTIDE1,2:R3-10:R3|PEPTIDE1,PEPTIDE1,1:R1-13:R2$$$V2.0)	92	56	> 100	3	–	0	0	74	5.7	0.2	0.5	–	–
CC[C@H](C)[C@@H]1NC(=O)[C@@H]2CCCN2C(=O)[C@@H]2CCCN2C(=O)[C@H](CC(=O)O)NC(=O)[C@H](CO)NC(=O)[C@H](CCCCN)NC(=O)[C@H]([C@@H](C)O)NC(=O)[C@@H]2CSSC[C@H](NC1=O)C(=O)N[C@@H](CC(N)=O)C(=O)N1CCC[C@@H]1C(=O)N1CCC[C@H]1C(=O)N[C@@H](C1CCCCC1)C(=O)N2 [Ex. 37] (HELM PEPTIDE1{[O=C([C@@H](N[*:1])C1CCCCC1)[*:2]].C.T.K.S.D.P.P.I.C.N.[dP].P}$PEPTIDE1,PEPTIDE1,2:R3-10:R3|PEPTIDE1,PEPTIDE1,1:R1-13:R2$$$V2.0)	–	35	–	–	92	0.1	–	56	5	–	–	–	–
CCCC[C@@H]1NC(=O)[C@@H]2CCCN2C(=O)[C@@H]2CCCN2C(=O)[C@H](CC(=O)O)NC(=O)[C@H](CO)NC(=O)[C@H](CCCCN)NC(=O)[C@H]([C@@H](C)O)NC(=O)[C@@H]2CSSC[C@H](NC1=O)C(=O)N[C@@H](CO)C(=O)N1CCC[C@@H]1C(=O)N1CCC[C@H]1C(=O)N[C@@H](Cc1ccccc1)C(=O)N2 [Ex. 53] (HELM PEPTIDE1{F.C.T.K.S.D.P.P.[Nle].C.S.[dP].P}$PEPTIDE1,PEPTIDE1,2:R3-10:R3|PEPTIDE1,PEPTIDE1,1:R1-13:R2$$$V2.0)	95	–	–	54	63	0	12.7	–	–	–	–	56	> 100
CC[C@H](C)[C@@H]1NC(=O)[C@@H]2CCCN2C(=O)[C@H]2CCCN2C(=O)[C@H](CCCNC(=N)N)NC(=O)[C@@H]2CSSC[C@H](NC1=O)C(=O)N[C@@H]([C@@H](C)O)C(=O)N[C@@H](CCCCN)C(=O)N[C@@H](CO)C(=O)N[C@@H](CC(=O)O)C(=O)N1CCC[C@H]1C(=O)N1CCC[C@H]1C(=O)N[C@@H](CCC(N)=O)C(=O)N2 [Ex. 17] (HELM PEPTIDE1{I.C.T.K.S.D.P.P.Q.C.R.[dP].P}$PEPTIDE1,PEPTIDE1,2:R3-10:R3|PEPTIDE1,PEPTIDE1,1:R1-13:R2$$$V2.0)	90.0	55	> 100	16	94	0.1	27.6	90.4	–	–	0	–	–
CC[C@H](C)[C@@H]1NC(=O)[C@@H]2CCCN2C(=O)[C@H]2CCCN2C(=O)[C@H](CCCNC(=N)N)NC(=O)[C@@H]2CSSC[C@H](NC1=O)C(=O)N[C@@H]([C@@H](C)O)C(=O)N[C@@H](CCCCN)C(=O)N[C@@H](CO)C(=O)N[C@@H](CC(=O)O)C(=O)N1CCC[C@H]1C(=O)N1CCC[C@H]1C(=O)N[C@@H](Cc1ccc(O)cc1)C(=O)N2 [Ex. 18] (HELM PEPTIDE1{I.C.T.K.S.D.P.P.Y.C.R.[dP].P}$PEPTIDE1,PEPTIDE1,2:R3-10:R3|PEPTIDE1,PEPTIDE1,1:R1-13:R2$$$V2.0)	84	47	> 100	25	100	0	32.5	88.3	–	–	0	–	–
CCCC[C@@H]1NC(=O)[C@@H]2CCCN2C(=O)[C@@H]2CCCN2C(=O)[C@H](CC(=O)O)NC(=O)[C@H](CO)NC(=O)[C@H](CCCCN)NC(=O)[C@H]([C@@H](C)O)NC(=O)[C@@H]2CSSC[C@H](NC1=O)C(=O)N[C@@H](CCCNC(=N)N)C(=O)N1CCC[C@@H]1C(=O)N1CCC[C@H]1C(=O)N[C@@H]([C@@H](C)CC)C(=O)N2 [Ex. 57] (HELM PEPTIDE1{I.C.T.K.S.D.P.P.[Nle].C.R.[dP].P}$PEPTIDE1,PEPTIDE1,2:R3-10:R3|PEPTIDE1,PEPTIDE1,1:R1-13:R2$$$V2.0)	94	–	–	0	–	0	26.9	82.2	4	32	11	41	> 100
CC[C@H](C)[C@@H]1NC(=O)[C@@H]2CCCN2C(=O)[C@H]2CCCN2C(=O)[C@H](CCCNC(=N)N)NC(=O)[C@@H]2CSSC[C@H](NC1=O)C(=O)N[C@@H]([C@@H](C)O)C(=O)N[C@@H](CCCCN)C(=O)N[C@@H](CO)C(=O)N[C@@H](CC(=O)O)C(=O)N1CCC[C@H]1C(=O)N1CCC[C@H]1C(=O)N[C@@H](CCC(N)=O)C(=O)N2 [Ex. 55] (HELM PEPTIDE1{I.C.T.K.S.D.P.P.Q.C.R.[dP].P}$PEPTIDE1,PEPTIDE1,2:R3-10:R3|PEPTIDE1,PEPTIDE1,1:R1-13:R2$$$V2.0)	90	–	–	16	94	0.1	27.6	90.4	–	–	–	55	> 100

Reference: patent US8658604B2, “Template-fixed beta-hairpin peptidomimetics with protease inhibitory activity” (Polyphor Ltd, priority 2005, dated 2014)
